The results in this text go back to patent US20200131156A1, “ARYLSULFONYLPYROLECARBOXAMIDE DERIVATIVES AS Kv3 POTASSIUM CHANNEL ACTIVATORS” (H. Lundbeck A/S, priority 2018, published 2020).

Series [1] relates to fast-spiking interneurons (FSI). In words: Hippocampal brain slice current clamp recording, FSI excitability (AP firing). Type of series: cell-based, rat. The method, then:
Male Sprague Dawley rats (18˜24 days old) from Shanghai Laboratory Animal Center (Shanghai, China) were used for brain slice experiments. They were housed in groups of five in controlled conditions (temperature of 23±3° C., humidity of 40-70%, and 12:12 light-dark cycle with lights on at 5:00 am) and free access to food and water. All procedures were conducted in agreement with the guideline of Institutional Animal Care and Use Committee at ChemPartner. Ethical approval was obtained by the The Danish Animal Experimentation Inspectorate (journal no. 2014 15 0201 00339).
Animals were decapitated by a guillotine and their brains quickly removed and placed in ice-cold modified artificial cerebral spinal fluid (ACSF) containing (in mM): 110 sucrose, 60 NaCl, 3 KCl, 5 glucose, 28 NaHCO3, 1.25 NaH2PO4, 0.5 CaCl2 and 7 MgCl2, aerated with 95% O2/5% CO2. The brains were block-trimmed and glued onto the stage of a vibratome (VT1200S, Leica Microsystems Inc., Bannockburn, Ill., USA). Parasagittal hippocampal slices (300 μm) were cut and incubated in the regular carbogenated ACSF containing (in mM): 119 NaCl, 2.5 KCl, 1.2 Na2HPO4, 25 NaHCO3, 2.5 CaCl2, 1.3 MgCl2, 10 glucose at 35° C. for the first 60 min and then transferred to room temperature prior to recordings.
In the hippocampal CA1 pyramidal cell layer, fast-spiking interneurons (FSI) or pyramidal (PYR) cells were visualized using differential interference contrast-infrared (DIC-IR)-assisted microscopy and whole-cell patch clamp recordings performed using an Axon Multiclamp 700B amplifier (Molecular Devices, Union City, Calif.). FSI were selected based on non-pyramidal shape and multipolar dendrites. Putative FSI were only accepted for experiments if they fulfilled the following electrophysiological criteria: short duration action potentials (APs <1 ms), large after hyperpolarizations, and, in response to sustained current injection, high frequency AP firing (>100 Hz) with limited spike frequency adaptation. Patch pipettes (4-5MΩ) were pulled from thick-walled borosilicate glass tubing (O.D.: 1.5 mm, I.D.: 0.75 mm; Sutter Instrument, Novato, Calif., USA).
Whole cell patch clamp recordings in current clamp mode were used to study neuronal excitability. AP firing was recorded in the presence of 50 μM APV, 10 μM DNQX and 10 μM Gabazine to block all synaptic transmission mediated by NMDA, AMPA and GABAA receptors. Patch pipettes were filled with an intracellular solution containing (in mM): 110 KMeSO4, 10 HEPES, 1 EGTA, 2 MgCl2, 4 Na2-ATP, 0.4 TRIS-GTP, 10 Tris2-Phosphocreatine, pH adjusted to 7.3 with KOH. The osmolarity was adjusted to 290 mOsm with sucrose. The holding potential was maintained continuously at −70 mV by manual DC injection. Series resistance (10-20 MΩ after “break-in”) was 90% compensated and monitored constantly during the entire experiment by “bridge”-balancing of the instantaneous voltage responses to a hyperpolarizing current pulse before each depolarizing stimulus delivery. A series of depolarizing current steps (800 ms-long) were applied every 3 min. Following at least 15 min of stable activity, Kv3 channel modulators were applied to the ACSF at increasing concentrations.

A short description of series [2]: Unbound fraction in brain. The format is in vitro ADME, rat.
Series [3] can be described thus: Unbound fraction in brain (mouse PK table footnote). Type of series: in vitro ADME.

One may read the fraction unbound as free concentration divided by total concentration. Lower therefore signals little free substance. Take `Cc1ccc(S(=O)(=O)n2ccc(C(=O)NCc3ncco3)c2)cc1` [Compound 86, 1-(4-methylbenzene-1-sulfonyl)-N-[(1,3-oxazol-2-yl)methyl]-1H-pyrrole-3-carboxamide]: the “FSI excitability (number of APs)” value in series [1] (10 μM) is given as “slight reduction in excitability”; in series [1] (0.3 and 1 μM), “increased excitability”. Further, the fraction unbound was 0.12 in series [2] (rat table footnote) and 0.11 in series [3].

`Cc1cnc(CNC(=O)c2ccn(S(=O)(=O)c3ccc(F)cc3C)c2)cn1` [Compound 90, 1-(4-fluoro-2-methylbenzene-1-sulfonyl)-N-[(5-methylpyrazin-2-yl)methyl]-1H-pyrrole-3-carboxamide]: the “FSI excitability (number of APs)” value is reported as “decreased, reaching a level below baseline” in series [1] (10 μM); “increase in FSI excitability” in series [1] (0.3 and 1 μM). The FSI excitability entry in series [1] (low concentrations (0.1 and 1 μM)) was “increases FSI excitability”. For the same compound, the free fraction (fraction unbound) is 0.08 in series [2] (rat PK table footnote) and 0.1 in series [3].
